Measurements reported in patent US11667646B2, “Solid state forms of rucaparib and of rucaparib salts” (ASSIA CHEMICAL INDUSTRIES LTD., priority 2017, dated 2023).
Structures can show the parent of a compound that is named as a salt.

How the values were obtained:
[1] = Kinetic solubility at various pH ranges; type: physicochemical
[2] = Solid state stability at controlled relative humidity, room temperature, open Petri dish; type: physicochemical
[3] = Hygroscopicity; type: physicochemical
[4] = Compressibility; type: physicochemical
[5] = API mass increase of the salt vs. the free base
[6] = 20-100% relative humidity (RH) at room temperature (RT) in open Petri dish

CNCc1ccc(-c2[nH]c3cc(F)cc4c3c2CCNC4=O)cc1 [Crystalline Form IV of Rucaparib Hemi-Edisylate] [8-fluoro-2-{4-[(methylamino)methyl]phenyl}-1,3,4,5-tetrahydro-6H-azepino[5,4,3-cd]indol-6-one Hemi-Edisylate]
kinetic solubility [1]: improved
period of stability [2, 6]: at least 1 month
hygroscopicity [3]: non-hygroscopic
compressibility properties [4]: good
API mass increase of the salt vs. the free base [5]: 9%

CNCc1ccc(-c2[nH]c3cc(F)cc4c3c2CCNC4=O)cc1 [Crystalline Form II of Rucaparib base, 8-fluoro-2-{4-[(methylamino)methyl]phenyl}-1,3,4,5-tetrahydro-6H-azepino[5,4,3-cd]indol-6-one]
period of stability ([2]; 20-40% relative humidity (RH) at room temperature (RT) in open Petri dish): at least 1 month
API mass increase of the salt vs. the free base [5]: no API mass increase

CNCc1ccc(-c2[nH]c3cc(F)cc4c3c2CCNC4=O)cc1 [Crystalline Form I of Rucaparib base, 8-fluoro-2-{4-[(methylamino)methyl]phenyl}-1,3,4,5-tetrahydro-6H-azepino[5,4,3-cd]indol-6-one]
kinetic solubility [1]: improved
period of stability [2, 6]: at least 1 month
hygroscopicity [3]: non-hygroscopic
API mass increase of the salt vs. the free base [5]: no API mass increase

CNCc1ccc(-c2[nH]c3cc(F)cc4c3c2CCNC4=O)cc1.Cc1ccc(S(=O)(=O)O)cc1 [8-fluoro-2-{4-[(methylamino)methyl]phenyl}-1,3,4,5-tetrahydro-6H-azepino[5,4,3-cd]indol-6-oneTosylate]
kinetic solubility [1]: improved
period of stability [2, 6]: at least 1 month
hygroscopicity [3]: non-hygroscopic
compressibility properties [4]: good
API mass increase of the salt vs. the free base [5]: 53%

CNCc1ccc(-c2[nH]c3cc(F)cc4c3c2CCNC4=O)cc1 [Crystalline Form C of Rucaparib base, 8-fluoro-2-{4-[(methylamino)methyl]phenyl}-1,3,4,5-tetrahydro-6H-azepino[5,4,3-cd]indol-6-one]
kinetic solubility [1]: improved
period of stability [2, 6]: at least 1 month
hygroscopicity [3]: non-hygroscopic
API mass increase of the salt vs. the free base [5]: no API mass increase

CNCc1ccc(-c2[nH]c3cc(F)cc4c3c2CCNC4=O)cc1 [Rucaparib camsylate, 8-fluoro-2-{4-[(methylamino)methyl]phenyl}-1,3,4,5-tetrahydro-6H-azepino[5,4,3-cd]indol-6-one ((1S,4R)-7,7 dimethyl-2-oxobicyclo[2.2.1]hept-1-yl) methane-sulfonic acid salt, reference compound]
API mass increase of the salt vs. the free base [5]: 72%
